Laboratory results: publication PMC11990670, “Exploring the Volatility, Phase Transitions, and Solubility Properties of Five Halogenated Benzaldehydes” (Molecules, 2025)
≈ marks a conversion by molar mass, not a printed value.

What was measured:
[1] = Thermodynamic properties of sublimation and vaporization from Clarke and Glew fit of vapor pressures
From the text: The experimental crystalline and liquid vapor pressures were independently fitted by the Clarke and Glew Equation (1) in its truncated form:(1) Rlnp/p^°=−ΔcdgGm°θ/θ+ΔcdgHm°θ1/θ−1/T+ΔcdgCp,m°θθ/T−1+lnT/θ where R is the molar gas constant, p is the vapor pressure at the temperature T, p° is a selected reference pressure (p° = 10^5 Pa in this work), and θ is a reference temperature. The differences between gaseous and condensed phases of standard molar Gibbs energy, enthalpy, and the isobaric heat capacity are represented, respectively, by ΔcdgGm° , ΔcdgHm° , and ΔcdgCp,m° .
The values of ΔcdgCp,m° are generally achieved only when accurate experimental data measured over ca. 50 K are reachable. […] For comparison reasons, the values of ΔcrgCp,m° were also calculated as ΔcrgCp,m°(θ)=Cp,m°(g)−Cp,m°(cr) , where the terms Cp,m°(g) and Cp,m°(cr) are, respectively, the gas and crystalline isobaric molar heat capacities. […] The crystalline molar heat capacities, Cp,m°(cr) , were determined at different temperatures using differential scanning calorimetry, enabling the fit to second-order polynomials in temperature, represented by Equation (3) and reported in Table 3. […] The values of Cp,m°(cr,298.15 K) were derived from these equations, allowing ΔcrgCp,m°(298.15 K) to be calculated.

[2] = Equilibrium solubility in water, saturation shake-flask method with UV-vis; details: 25 °C, thermodynamic from solid
Method: (§1) The concentration was measured by absorbances at 260 nm for 4-chlorobenzaldehyde, 263 nm for 4-bromobenzaldehyde and 2,4-dichlorobenzaldehyde, 297 nm for 2,6-dichlorobenzaldehyde, and 306 nm for 2,3-dichlorobenzaldehyde, using a Cary-60 UV–vis (Agilent) spectrophotometer. X-ray diffraction (XRD) and differential scanning calorimetry of residual solids were used to identify the eventual phase transformations. The purified samples of each compound studied were used for all experimental determinations, including the solubility measurements. After reaching the equilibrium, the residual solid was dried and analyzed using both DSC and XRD. The melting properties obtained from DSC were compared with those of the original purified sample, following the same procedure for the XRD analysis. […] As an example, the supporting information includes two thermograms and two XRD patterns for 2,4-dichlorobenzaldehyde (Figures S1 and S2). […] Equation (4) was derived from Equation (5), which is widely applicable to the solubility of solids.(4) ΔhydrGm°/kJ·mol^−1=9.17−5.71·log10(Scr/mol·m^−3)−ΔcrgGm°/kJ·mol^−1 (5) S=p^°/RTexpΔcrgGm°+ΔhydrGm°/−RT
An excess amount of each compound was added to a known volume of water in triplicate. […] After stirring, the solid phase was allowed to settle for 2 h. The pH of the saturated solutions was measured using a Mettler Toledo (Greifensee, Switzerland) FiveEasy F20 pH Meter calibrated with standard aqueous solutions (pH 7.00 and 4.01 or 10.1). Those solutions were then filtered through a 0.22 μm syringe hydrophilic filter (13 mm, PTFE, Labfil, Zhejiang, China) and diluted to the required concentration. The concentration of the compounds, expressed in molarity, was measured by absorbances using a Cary-60 UV–vis spectrophotometer (Agilent Technologies, Santa Clara, CA, USA) at 298.15 K (single cell Peltier accessory, ±0.15 K). The results reported in Table 6 are averaged from at least three replicates. Calibration was performed using solutions of known concentrations of each substance in water. These solutions were prepared by adding a precise mass of the substance and a specific volume of the solvent to a flask, then mixing until the substance was fully dissolved. The absorbance of these solutions was measured, and calibration curves were created.

[3] = Gibbs energy of hydration and Henry's law volatility constant calculated from sublimation and solubility data; details: 25 °C; for Gibbs energy of hydration ΔhydrGm°: calculated by Equation (4); for log10(KHpc/kPa·m^3·mol^−1) Henry's law volatility constant: calculated by Equation (6); for KHpc×10^3 Henry's law volatility constant: value is KHpc multiplied by 10^3
Method: as §1
The standard states in Equation (5) are p° = 1 × 10^5 Pa for ΔcrgGm° , c° = 1 mol·L^−1 for ΔhydrGm° and s° = 1 mol·m^−3 for solubility. Using the experimental results of ΔhydrGm° , calculated through Equation (4), the values of Henry’s law volatility constants, KHpc, were determined in the logarithm form by Equation (6), that was adapted from Modarressi et al..

[4] = crystalline phase, θ = 298.15 K
[5] = crystalline phase, θ = 298.15 K, p° = 10^5 Pa
[6] = crystalline phase, θ = 307.92 K (mean temperature)
[7] = crystalline phase, θ = 334.82 K (triple point)
[8] = liquid phase including supercooled liquid, θ = 298.15 K
[9] = liquid phase including supercooled liquid, θ = 298.15 K, p° = 10^5 Pa
[10] = liquid phase, θ = 334.82 K (triple point)
[11] = liquid phase, θ = 354.31 K (mean temperature)
[12] = crystalline phase, θ = 313.72 K (mean temperature)
[13] = crystalline phase, θ = 343.90 K (triple point)
[14] = liquid phase, θ = 343.90 K (triple point)
[15] = liquid phase, θ = 350.04 K (mean temperature)
[16] = crystalline phase, θ = 315.46 K (mean temperature)
[17] = crystalline phase, θ = 342.99 K (triple point)
[18] = liquid phase, θ = 342.99 K (triple point)
[19] = liquid phase, θ = 358.95 K (mean temperature)

O=Cc1cccc(Cl)c1Cl [2,3-Dichlorobenzaldehyde]
triple point pressure ptp ([1]; Ttp = 334.82 K): 87.6 Pa | p (Equation (1)) vapor pressure [1, 4]: 2.47 Pa | ΔcdgGm°(θ) standard molar Gibbs energy of sublimation [1, 5]: 26.30 ± 0.01 kJ/mol | ΔcdgHm°(θ) standard molar enthalpy of sublimation [1, 5]: 81.2 ± 0.3 kJ/mol | ΔcdgSm°(θ) (Equation (2)) standard molar entropy of sublimation [1, 5]: 184.1 ± 1.0 J·K^−1·mol^−1 | p (Equation (1)) vapor pressure [1, 6]: 6.98 Pa | ΔcdgGm°(θ) standard molar Gibbs energy of sublimation [1, 6]: 24.50 ± 0.01 kJ/mol | ΔcdgHm°(θ) standard molar enthalpy of sublimation [1, 6]: 81.0 ± 0.2 kJ/mol | p (Equation (1)) vapor pressure [1, 7]: 87.6 Pa | ΔcdgGm°(θ) standard molar Gibbs energy of sublimation [1, 7]: 19.60 ± 0.03 kJ/mol | ΔcdgHm°(θ) standard molar enthalpy of sublimation [1, 7]: 80.2 ± 0.4 kJ/mol | p (Equation (1)) vapor pressure [1, 8]: 5.81 Pa | ΔcdgGm°(θ) standard molar Gibbs energy of vaporization [1, 9]: 24.18 ± 0.08 kJ/mol | ΔcdgHm°(θ) standard molar enthalpy of vaporization [1, 9]: 62.7 ± 1.1 kJ/mol | ΔcdgSm°(θ) (Equation (2)) standard molar entropy of vaporization [1, 9]: 129.2 ± 3.7 J·K^−1·mol^−1 | p (Equation (1)) vapor pressure [1, 10]: 87.6 Pa | ΔcdgGm°(θ) standard molar Gibbs energy of vaporization [1, 10]: 19.60 ± 0.03 kJ/mol | ΔcdgHm°(θ) standard molar enthalpy of vaporization [1, 10]: 60.0 ± 0.4 kJ/mol | p (Equation (1)) vapor pressure [1, 11]: 282 Pa | ΔcdgGm°(θ) standard molar Gibbs energy of vaporization [1, 11]: 17.29 ± 0.01 kJ/mol | ΔcdgHm°(θ) standard molar enthalpy of vaporization [1, 11]: 58.6 ± 0.1 kJ/mol | solubility at 72 h [2]: 853 µM (≈ 149 µg/mL) | Gibbs energy of hydration ΔhydrGm° [3]: -16.7 kJ/mol | log10(KHpc/kPa·m^3·mol^−1) Henry's law volatility constant [3]: −2.53 | KHpc×10^3 Henry's law volatility constant [3]: 2.95 kPa·m^3·mol^−1

O=Cc1ccc(Cl)cc1Cl [2,4-Dichlorobenzaldehyde]
triple point pressure ptp ([1]; Ttp = 343.90 K): 2.01 × 10^2 Pa | p (Equation (1)) vapor pressure [1, 4]: 2.64 Pa | ΔcdgGm°(θ) standard molar Gibbs energy of sublimation [1, 5]: 26.13 ± 0.01 kJ/mol | ΔcdgHm°(θ) standard molar enthalpy of sublimation [1, 5]: 81.5 ± 0.2 kJ/mol | ΔcdgSm°(θ) (Equation (2)) standard molar entropy of sublimation [1, 5]: 185.7 ± 0.7 J·K^−1·mol^−1 | p (Equation (1)) vapor pressure [1, 12]: 13.5 Pa | ΔcdgGm°(θ) standard molar Gibbs energy of sublimation [1, 12]: 23.25 ± 0.01 kJ/mol | ΔcdgHm°(θ) standard molar enthalpy of sublimation [1, 12]: 81.0 ± 0.1 kJ/mol | p (Equation (1)) vapor pressure [1, 13]: 201 Pa | ΔcdgGm°(θ) standard molar Gibbs energy of sublimation [1, 13]: 17.75 ± 0.02 kJ/mol | ΔcdgHm°(θ) standard molar enthalpy of sublimation [1, 13]: 80.0 ± 0.5 kJ/mol | p (Equation (1)) vapor pressure [1, 8]: 7.95 Pa | ΔcdgGm°(θ) standard molar Gibbs energy of vaporization [1, 9]: 23.40 ± 0.05 kJ/mol | ΔcdgHm°(θ) standard molar enthalpy of vaporization [1, 9]: 61.9 ± 0.7 kJ/mol | ΔcdgSm°(θ) (Equation (2)) standard molar entropy of vaporization [1, 9]: 129.1 ± 2.4 J·K^−1·mol^−1 | p (Equation (1)) vapor pressure [1, 14]: 201 Pa | ΔcdgGm°(θ) standard molar Gibbs energy of vaporization [1, 14]: 17.75 ± 0.02 kJ/mol | ΔcdgHm°(θ) standard molar enthalpy of vaporization [1, 14]: 58.5 ± 0.1 kJ/mol | p (Equation (1)) vapor pressure [1, 15]: 289 Pa | ΔcdgGm°(θ) standard molar Gibbs energy of vaporization [1, 15]: 17.02 ± 0.01 kJ/mol | ΔcdgHm°(θ) standard molar enthalpy of vaporization [1, 15]: 58.0 ± 0.1 kJ/mol | solubility at 72 h [2]: 821 µM (≈ 144 µg/mL) | Gibbs energy of hydration ΔhydrGm° [3]: -16.5 kJ/mol | log10(KHpc/kPa·m^3·mol^−1) Henry's law volatility constant [3]: −2.50 | KHpc×10^3 Henry's law volatility constant [3]: 3.16 kPa·m^3·mol^−1

O=Cc1c(Cl)cccc1Cl [2,6-Dichlorobenzaldehyde]
triple point pressure ptp ([1]; Ttp = 342.99 K): 85.7 Pa | p (Equation (1)) vapor pressure [1, 4]: 0.95 Pa | ΔcdgGm°(θ) standard molar Gibbs energy of sublimation [1, 5]: 28.66 ± 0.01 kJ/mol | ΔcdgHm°(θ) standard molar enthalpy of sublimation [1, 5]: 85.9 ± 0.4 kJ/mol | ΔcdgSm°(θ) (Equation (2)) standard molar entropy of sublimation [1, 5]: 192.0 ± 1.3 J·K^−1·mol^−1 | p (Equation (1)) vapor pressure [1, 16]: 6.35 Pa | ΔcdgGm°(θ) standard molar Gibbs energy of sublimation [1, 16]: 25.35 ± 0.01 kJ/mol | ΔcdgHm°(θ) standard molar enthalpy of sublimation [1, 16]: 85.4 ± 0.1 kJ/mol | p (Equation (1)) vapor pressure [1, 17]: 85.7 Pa | ΔcdgGm°(θ) standard molar Gibbs energy of sublimation [1, 17]: 20.14 ± 0.02 kJ/mol | ΔcdgHm°(θ) standard molar enthalpy of sublimation [1, 17]: 84.5 ± 0.7 kJ/mol | p (Equation (1)) vapor pressure [1, 8]: 2.84 Pa | ΔcdgGm°(θ) standard molar Gibbs energy of vaporization [1, 9]: 25.95 ± 0.10 kJ/mol | ΔcdgHm°(θ) standard molar enthalpy of vaporization [1, 9]: 66.2 ± 1.2 kJ/mol | ΔcdgSm°(θ) (Equation (2)) standard molar entropy of vaporization [1, 9]: 135.0 ± 4.0 J·K^−1·mol^−1 | p (Equation (1)) vapor pressure [1, 18]: 85.7 Pa | ΔcdgGm°(θ) standard molar Gibbs energy of vaporization [1, 18]: 20.14 ± 0.02 kJ/mol | ΔcdgHm°(θ) standard molar enthalpy of vaporization [1, 18]: 62.7 ± 0.3 kJ/mol | p (Equation (1)) vapor pressure [1, 19]: 225 Pa | ΔcdgGm°(θ) standard molar Gibbs energy of vaporization [1, 19]: 18.19 ± 0.01 kJ/mol | ΔcdgHm°(θ) standard molar enthalpy of vaporization [1, 19]: 61.4 ± 0.1 kJ/mol | solubility at 72 h [2]: 1130 µM (≈ 197 µg/mL) | Gibbs energy of hydration ΔhydrGm° [3]: -19.8 kJ/mol | log10(KHpc/kPa·m^3·mol^−1) Henry's law volatility constant [3]: −3.07 | KHpc×10^3 Henry's law volatility constant [3]: 0.851 kPa·m^3·mol^−1
